In test [1] the test system is passive cutaneous anaphylaxis (DNP-As homocytotropic antiserum). As to the kind of experiment: passive cutaneous anaphylatic assay (PCA) in rats. The test is classed as in vivo, Wistar strain rats. The following applies: 10 mg/kg orally, one hour before antigen; for inhibition in vivo at 10 mg/kg: Rattus norvegicus, po, 1 h, read-out: PCA Inhibition Ratio %; for PCA Inhibition Ratio %: listed as H. The method, then: (§1) The compounds of the present invention have been evaluated for their anti-allergenic action by passive cutaneous anaphylatic assay (PCA) in rats and by measuring the anti-SRS-A action using ileus of guinea pigs.
(i) Antiserum abundant in homocytotropic antibody is prepared by the same method as Tada and Okumura did (cf. Journal of Immunology, vol. 106, page 1002, 1971). Thus, 1 mg (calculated as an amount of protein) of DNP-As (2,4-dinitrophenylcoupled ascaris extract) prepared by methods of Strejan and Campbell (Journal of Immunology, vol. 98, p. 893, 1967) and of Eisen (Journal of Amer. Chem. Soc., vol. 75, p 4593, 1953) and 1×10^10pertussis vaccine are administered to each paw of Wistar strain rats (180 to 200 grams body weights) by dividing the dose by four. Five days later, 0.5 mg of DNP-As is administered into muscle of back. Eight days later from the initial immunization, blood is taken from discending aorta under anesthetizing with ether, the resulting serum is stored at -80° and is melted before use.
(ii) Effect of tested compounds is investigated as follows:
Anti-serum obtained by th method (i) is diluted with physiological saline solution double by double successively and 0.05 ml of each diluted solution is administered into the back of Wistar strain rats (140 to 160 grams body weight) intradermally. After 72 hours, a solution of 2 mg (calculated as protein) of DNP-As and 2.5 mg of Evans Blue dissolved in 1 ml of physiological saline solution is administered intraveously at a dose of 5 ml/kg. After 30 minutes from the antigen solution administration, the animals are killed and the diameters of blue spots which appeared at the place where antiserum was administered were measured. The PCA test is conducted by the same method as already described using a diluted solutions of antiserum which always show 10 mm or more of spot diameters and the effect of the test compounds is judged. Thus antiserum diluted solutions are administered into two places in the back. Test compounds are administered orally at the dose of 10 mg/kg one hour before administration of the antigen solution. From the skin of reacted parts of killed animals, leaked or emitted dyestuff is extracted and the amount of the dyestuff is measured. The inhibition ratio is calculated by the following expression: [formula] in which A' is an amount of dyestuff in the group treated with the test compounds and A is that in the control group.

In test [2] the test system is SRS-A (slow reacting substance of anaphylaxis) contraction of ileum. As to the kind of experiment: Anti-SRS-A action using ileus of guinea pigs. The format is cell-based, Hartley strain male guinea pigs. The following applies: 5 min, guinea pig ileum, SRS-A 20 units, compound five minutes before; for inhibition at 1 µM: Cavia porcellus, 1/1000 mM, read-out: 1/1000 mM SRS-A Inhibition Ratio %. The method, then: as §1
Anti-SRS-A action (An anti-acton against slow reacting substance of anaphylaxis).
Hartley strain male guinea pigs (300 to 350 grams body weight) are killed and 1.0 to 1.5 cm of ileum is immeidiately excised from ileocecal parts and is suspended in 10 ml of Tyrode solution (95% 02 -5% CO2 saturation) containing 10^-7 g/ml of atropine and 10^-6 g/ml of pyrilamine. SRS-A (20 units) (the amount of SRS-A showing the same contradiction as 5 ng of histamine is defined as 1 unit) prepared by using sensitized guinea pig lung is given to cause contraction there. Then antagonistic action of test compounds treated five minutes ago against the contraction is measured and recorded via isotonic transducer. [formula] in which A' is a height of contraction of SRS-A+test compound and A is that of SRS-A.

SMILES strings stand for the structures.

Consider `CC(C)c1ccc(-c2cc(=O)c3cc(C(=O)O)ccc3[nH]2)cc1` [Example 49], for which, in test [1], the inhibition in vivo at 10 mg/kg is 25.2%. The inhibition at 1 µM in test [2] is 18.8%.
With `CCCCCc1ccc(-c2cc(=O)c3cc(C(=O)OC)ccc3[nH]2)cc1` [Example 50], in test [1], the inhibition in vivo at 10 mg/kg is 19.4%. Also, in test [2], the inhibition at 1 µM turned out to be 36%.
Regarding `CCCCCc1ccc(-c2cc(=O)c3cc(C(=O)O)ccc3[nH]2)cc1` [Example 51], in test [1], the inhibition in vivo at 10 mg/kg was 22.7%. Besides, in test [2], the inhibition at 1 µM turned out to be 61.4%.
Take `COC(=O)c1ccc2[nH]c(-c3cccc(C(F)(F)F)c3)cc(=O)c2c1` [Example 52]: the inhibition in vivo at 10 mg/kg in test [1] was found to be 25%. Further, the inhibition at 1 µM in test [2] amounted to 21.3%.
As for `O=C(O)c1ccc2[nH]c(-c3cccc(C(F)(F)F)c3)cc(=O)c2c1` [Example 53], the inhibition in vivo at 10 mg/kg in test [1] came to 22.4%. Further, in test [2], the inhibition at 1 µM is 30%.
Regarding `COC(=O)c1ccc2[nH]c(-c3ccc(C)cc3C)cc(=O)c2c1` [Example 54], in test [1], the inhibition in vivo at 10 mg/kg came to 18.9%. In addition, the inhibition at 1 µM in test [2] turned out to be 22.4%.
Taken in the same sequence, the figures for `Cc1ccc(-c2cc(=O)c3cc(C(=O)O)ccc3[nH]2)c(C)c1` [Example 55] were 16.8% and 17.5%.
Taken in the same sequence, the figures for `COc1ccccc1C1=Nc2ccc(C(=O)O)cc2C(=O)C1` [Example 57, 2-(2-methoxyphenyl)-4-quinolone-6-carboxylic acid] were 20.4% and 27.7%.
`CCOc1ccccc1-c1cc(=O)c2cc(C(=O)OC)ccc2[nH]1` [Example 58]: the inhibition in vivo at 10 mg/kg in test [1] is 23.1%. Moreover, the inhibition at 1 µM in test [2] came out at 63%.
Consider `CCOc1ccccc1-c1cc(=O)c2cc(C(=O)O)ccc2[nH]1` [Example 59], for which the inhibition in vivo at 10 mg/kg in test [1] is 15.8%. For the same molecule, in test [2], the inhibition at 1 µM is 24.6%.
With `COC(=O)c1ccc2[nH]c(-c3ccccc3OC(C)C)cc(=O)c2c1` [Example 60], the inhibition in vivo at 10 mg/kg in test [1] stood at 21.2%. For the same molecule, the inhibition at 1 µM in test [2] worked out at 58.8%.
Consider `CC(C)Oc1ccccc1-c1cc(=O)c2cc(C(=O)O)ccc2[nH]1` [Example 61], for which, in test [1], the inhibition in vivo at 10 mg/kg came to 20.1%. Further, the inhibition at 1 µM in test [2] is 31.8%.
Regarding `COC(=O)c1ccc2[nH]c(-c3ccc(OC)cc3)cc(=O)c2c1` [Example 62], the inhibition in vivo at 10 mg/kg in test [1] came out at 19%. Moreover, the inhibition at 1 µM in test [2] worked out at 27.4%.
As to `COc1ccc(-c2cc(=O)c3cc(C(=O)O)ccc3[nH]2)cc1` [Example 63], the inhibition in vivo at 10 mg/kg in test [1] amounted to 18.4%. Besides, the inhibition at 1 µM in test [2] came to 23%.
Take `COc1ccc(-c2cc(=O)c3cc(C(=O)O)ccc3[nH]2)c(OC)c1` [Example 65]: the inhibition in vivo at 10 mg/kg in test [1] is 26.9%. Also, the inhibition at 1 µM in test [2] turned out to be 27.3%.
Regarding `COC(=O)c1ccc2[nH]c(-c3ccc(OC)c(OC)c3)cc(=O)c2c1` [Example 66], the inhibition in vivo at 10 mg/kg in test [1] was 25.4%. For the same molecule, the inhibition at 1 µM in test [2] was 25.7%.
Consider `COc1ccc(-c2cc(=O)c3cc(C(=O)O)ccc3[nH]2)cc1OC` [Example 67], for which the inhibition in vivo at 10 mg/kg in test [1] worked out at 17.4%. Moreover, the inhibition at 1 µM in test [2] turned out to be 25%.
For the molecule `COC(=O)c1ccc(-c2cc(=O)c3cc(C(=O)OC)ccc3[nH]2)cc1` [Example 68], the inhibition in vivo at 10 mg/kg in test [1] stood at 19.8%. In test [2], the inhibition at 1 µM turned out to be 36.8%.
Take `O=C(O)c1ccc(-c2cc(=O)c3cc(C(=O)O)ccc3[nH]2)cc1` [Example 69]: in test [1], the inhibition in vivo at 10 mg/kg amounted to 25.8%. Further, the inhibition at 1 µM in test [2] came out at 27.9%.
As for `O=C(O)c1ccc2[nH]c(-c3ccncc3)cc(=O)c2c1` [Example 71], the inhibition in vivo at 10 mg/kg in test [1] was 25.6%. Moreover, in test [2], the inhibition at 1 µM is 25%.
Regarding `COC(=O)c1ccc2[nH]c(-c3cccnc3)cc(=O)c2c1` [Example 72], the inhibition in vivo at 10 mg/kg in test [1] amounted to 17.8%. The inhibition at 1 µM in test [2] stood at 22%.
`O=C(O)c1ccc2[nH]c(-c3cccnc3)cc(=O)c2c1` [Example 73]: the inhibition in vivo at 10 mg/kg in test [1] turned out to be 20.4%. Further, the inhibition at 1 µM in test [2] was 23.8%.
As for `COC(=O)c1ccc2[nH]c(-c3ccccn3)cc(=O)c2c1` [Example 74], the inhibition in vivo at 10 mg/kg in test [1] turned out to be 23.1%. The inhibition at 1 µM in test [2] was determined as 25%.
Consider `O=C(O)c1ccc2[nH]c(-c3ccccn3)cc(=O)c2c1` [Example 75], for which the inhibition in vivo at 10 mg/kg in test [1] was found to be 20.4%. Moreover, the inhibition at 1 µM in test [2] came to 28.9%.
On to `O=C(O)c1ccc2[nH]c(-c3ccco3)cc(=O)c2c1` [Example 77], for which the inhibition in vivo at 10 mg/kg in test [1] was determined as 17.4%. The inhibition at 1 µM in test [2] stood at 21%.
For `COC(=O)c1ccc2[nH]c(-c3cccs3)cc(=O)c2c1` [Example 78], in test [1], the inhibition in vivo at 10 mg/kg came to 26.7%. The inhibition at 1 µM in test [2] worked out at 23.3%.
Take `O=C(O)c1ccc2[nH]c(-c3cccs3)cc(=O)c2c1` [Example 79]: the inhibition in vivo at 10 mg/kg in test [1] is 19.8%. For the same molecule, the inhibition at 1 µM in test [2] was 19.5%.
`O=C(O)c1cccc2c(=O)cc(-c3ccccc3)[nH]c12` [Example 81]: the “PCA Inhibition Ratio %” value in test [1] (H) is recorded as 35.3%. Besides, the inhibition at 1 µM in test [2] worked out at 26.4%.
Take `O=C(O)c1cccc2c(=O)cc(-c3ccccc3)[nH]c12` [Example 82]: the “PCA Inhibition Ratio %” value in test [1] (Na salt) was determined as 10.0%. Moreover, the “1/1000 mM SRS-A Inhibition Ratio %” value in test [2] (listed as H, Na salt, 1 µM) turned out to be 27.3%.
`O=C(O)c1cccc2c(=O)cc(-c3cccc(Cl)c3)[nH]c12` [Example 87]: the inhibition in vivo at 10 mg/kg in test [1] turned out to be 19.3%. Besides, the inhibition at 1 µM in test [2] was found to be 20.7%.
The corresponding values for `COC(=O)c1cccc2c(=O)cc(-c3ccc(Cl)cc3Cl)[nH]c12` [Example 88] are 17.5% and 45.5%.
The corresponding values for `O=C(O)c1cccc2c(=O)cc(-c3ccc(Cl)cc3Cl)[nH]c12` [Example 90] are 23.4% and 53.6%.
Taken in the same sequence, the figures for `O=C(O)c1cccc2c(=O)cc(-c3ccc(Cl)c(Cl)c3)[nH]c12` [Example 91] were 22.7% and 24.2%.
In the case of `Cc1ccc(-c2cc(=O)c3cccc(C(=O)O)c3[nH]2)cc1` [Example 93], in test [1], the inhibition in vivo at 10 mg/kg was found to be 23.5%. Also, the inhibition at 1 µM in test [2] was found to be 26.7%.
Regarding `Cc1ccc(-c2cc(=O)c3cccc(C(=O)O)c3[nH]2)c(C)c1` [Example 95], the inhibition in vivo at 10 mg/kg in test [1] amounted to 24.2%. For the same molecule, the inhibition at 1 µM in test [2] was determined as 22.8%.
As for `CCCCCCCCc1ccc(-c2cc(=O)c3cccc(C(=O)OCC)c3[nH]2)cc1` [Example 96], the inhibition in vivo at 10 mg/kg in test [1] was determined as 21.5%. In addition, the inhibition at 1 µM in test [2] came to 23.8%.
`CCCCCCCCc1ccc(-c2cc(=O)c3cccc(C(=O)O)c3[nH]2)cc1` [Example 97]: the inhibition in vivo at 10 mg/kg in test [1] worked out at 22%. Also, in test [2], the inhibition at 1 µM came to 33.7%.
On to `COC(=O)c1cccc2c1N=C(c1ccccc1Cl)CC2=O` [Example 101, Methyl 2-(2-chlorophenyl)-4-quinolone-8-carboxylate], for which the inhibition in vivo at 10 mg/kg in test [1] was 17.4%. Further, in test [2], the inhibition at 1 µM was 14.7%.
Take `CCOC(=O)c1cccc2c(=O)cc(-c3ccc(Cl)cc3)[nH]c12` [Example 103]: in test [1], the inhibition in vivo at 10 mg/kg turned out to be 14.7%. The inhibition at 1 µM in test [2] came out at 12.4%.
In the case of `CCOC(=O)c1cccc2c(=O)cc(-c3ccc(C)c(C)c3)[nH]c12` [Example 105], the inhibition in vivo at 10 mg/kg in test [1] was found to be 17.3%. Also, in test [2], the inhibition at 1 µM was 10.4%.
`CCCOC(=O)c1cccc2c(=O)cc(-c3ccccc3Cl)[nH]c12` [Example 111]: the inhibition in vivo at 10 mg/kg in test [1] was 2.4%. Besides, the inhibition at 1 µM in test [2] amounted to 7.8%.
With `CCCCCCOC(=O)c1cccc2c(=O)cc(-c3ccccc3Cl)[nH]c12` [Example 113], in test [1], the inhibition in vivo at 10 mg/kg stood at 10.5%. Also, the inhibition at 1 µM in test [2] is 20.5%.
As to `O=C(OCCCO)c1cccc2c(=O)cc(-c3ccccc3Cl)[nH]c12` [Example 115], in test [1], the inhibition in vivo at 10 mg/kg was determined as 12.4%. The inhibition at 1 µM in test [2] worked out at 27.4%.

These data come from US4711898A, “4-quinolone derivatives having anti-inflammatory, anti-allergic, antitussive, expectorant and antithrombotic activity” (Nippon Shinyaku Co., Ltd., priority 1982, dated 1987).
